In US7932270B2 (Cytokinetics, Inc., priority 2006, dated 2011) one finds IC50 data, which are given here for five compounds.

The assay deals with T1, chicken gizzard smooth muscle myosin subfragment-1 chemically crosslinked to cardiac or skeletal actin (Gallus gallus, UniProt P10587).
T1 construct: chicken gizzard smooth muscle myosin subfragment-1; from tissue; host or cells: chicken gizzard
T1 sequence (P02607 2-151): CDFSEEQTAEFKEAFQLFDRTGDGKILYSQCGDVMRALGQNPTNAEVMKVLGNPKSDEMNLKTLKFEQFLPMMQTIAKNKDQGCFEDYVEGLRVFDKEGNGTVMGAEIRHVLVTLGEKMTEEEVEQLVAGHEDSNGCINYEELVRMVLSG
T1 sequence (P10587 84-789): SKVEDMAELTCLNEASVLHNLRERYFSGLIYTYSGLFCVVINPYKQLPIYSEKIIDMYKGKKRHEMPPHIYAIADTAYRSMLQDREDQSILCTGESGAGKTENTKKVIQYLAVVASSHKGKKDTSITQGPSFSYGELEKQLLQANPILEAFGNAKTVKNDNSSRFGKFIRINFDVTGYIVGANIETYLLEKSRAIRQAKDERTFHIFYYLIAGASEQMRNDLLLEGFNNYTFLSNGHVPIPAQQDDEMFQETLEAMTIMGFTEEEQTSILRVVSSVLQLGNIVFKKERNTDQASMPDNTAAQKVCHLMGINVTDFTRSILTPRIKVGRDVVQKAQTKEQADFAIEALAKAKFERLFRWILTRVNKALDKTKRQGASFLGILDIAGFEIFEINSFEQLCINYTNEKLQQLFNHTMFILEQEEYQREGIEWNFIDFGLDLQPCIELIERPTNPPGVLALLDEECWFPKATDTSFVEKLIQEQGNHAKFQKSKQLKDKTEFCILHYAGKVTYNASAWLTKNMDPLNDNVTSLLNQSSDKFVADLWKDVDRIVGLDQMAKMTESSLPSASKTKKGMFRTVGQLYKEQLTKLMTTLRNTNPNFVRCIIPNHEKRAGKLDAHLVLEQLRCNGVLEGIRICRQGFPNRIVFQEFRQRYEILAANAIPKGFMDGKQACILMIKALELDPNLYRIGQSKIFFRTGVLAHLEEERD
Put plainly: Smooth muscle myosin ATPase dose response assay (pyruvate kinase/horseradish peroxidase/pyruvate oxidase-coupled, amplex red fluorescence). Type of assay: biochemical. The conditions noted are these: read-out: IC50 Arithmetic Mean. The method, boiled down:
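EDC/NHS-crosslinked S1–actin, amount set per prep by rate titration. Buffer: 12 mM K-PIPES pH 7.00 (22° C), 100 mM KCl, 2 mM MgCl2, 0.15 mM ATP, 0.1 mM PEP, 2 mM KPi, 0.1 mM amplex red. Read ex 480/em 615 nm; IC50 = midpoint, 4-param Hill fit.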
On to `C=CCNC(=O)c1ccc(-c2ccccc2)nc1NCCc1ccccc1` [{6-phenyl-2-[(2-phenylethyl)amino](3-pyridyl)}-N-prop-2-enylcarboxamide], for which the concentration for half-maximal inhibition (IC50) is 1.06 µM.

On to `O=C(NCc1cccnc1)c1ccc(-c2ccccc2)nc1NCCOc1ccccc1` [{6-phenyl-2-[(2-phenyoxyethyl)amino](3-pyridyl)}-N-(3-pyridylmethyl)carboxamide], for which the IC50 stood at 20.2 µM. As for `O=C(NCc1cccnc1)c1ccc(-c2ccccc2)nc1NCCCc1ccccc1` [{6-phenyl-2-[(3-phenylpropyl)amino](3-pyridyl)}-N-(3-pyridylmethyl)carboxamide], the figure is 5.69 µM; as for `O=C(NCc1cccnc1)c1ccc(-c2ccccc2)nc1NCc1ccccc1` [{6-phenyl-2-[benzylamino](3-pyridyl)}-N-(3-pyridylmethyl)carboxamide], 2.79 µM; as for “(2-{[2-(2-oxoimidazolidinyl)ethyl]amino}-6-phenyl(3-pyridyl))-N-(3-pyridylmethyl)carboxamide”, 70.7 µM.

A word on the IC50: it is the concentration that gives 50% inhibition.
